This is an account of results in patent US20250270648A1, “MOLECULAR SIGNATURE FOR ASSESSING THE RESPONSIVENESS OF CANCER TO MITOCHONDRIA-TARGETED ANTIOXIDANTS” (UNIVERSITÉ CATHOLIQUE DE LOUVAIN, priority 2021, published 2025).

Common to all, as to assay type: cell-based, human
For data set [1], the system named is MCF10A normal breast epithelial cells. In words: Mitochondrial superoxide, EPR with MitoTEMPO-H ±PEG-SOD2. As to conditions: MitoQ 100 nM, 48 h. As for the experimental part: Mitochondrial superoxide levels were determined using electron paramagnetic resonance (EPR) with MitoTEMPO-H as a specific mitochondrial superoxide probe ±PEG-SOD2 to specifically assign signals to mitochondrial superoxide. EPR measurements were performed using a Bruker EMX-Plus spectrometer, operating in X-band (9.85 GHz) and equipped with a PremiumX ultra low noise microwave bridge and a SHQ high sensitivity resonator. Typical settings were: microwave power: 20 mW; attenuation: 10 dB; modulation frequency: 100 kHz; modulation amplitude: 0.1 mT; time constant: 20.48 ms; conversion time: 22.58 ms; sweep width: 0.15 mT. Briefly, MDA-MB-231, SkBr3, MCF10A or MDA-MB-436 cells were treated ±MitoQ for 48 h, harvested and resuspended in PBS at 2×10^6 cells/mL. The experimental mixture was prepared with cell suspension, 1 mM DTPA and 150 μM MitoTEMPO-H. It was then aspirated into a gas-permeable polytetrafluoroethylene (PTFE) tubing that was placed in a quartz tube opened at both ends. The tube was directly inserted inside the EPR cavity that was heated at 310° K with air during all experiments. […] Net superoxide production was calculated by subtracting the double integration values of the […] with PEG-SOD2 to the control value at timepoint 15 min.

In data set [2] the test system is MDA-MB-436 spheroids. In words: Spheres / stem-like spheroids. As to conditions: increasing doses of MitoQ, over 1 week. Here is the method: 3D models were used to obtain an enriched population in stem cells. For that, 10^4 MDA-MB-231, SkBr3 or MDA-MB-436 cancer cells were grown in suspension using 10 cm dishes coated with Polyhema in stem-cell medium: DMEM/F-12 (Gibco®, cat #11320033) supplemented with 100 units/mL penicillin, 100 μg/mL streptomycin, 20 μL/mL B27 (Gibco®, cat #17504044), 20 ng/mL human recombinant epithelial growth factor (EGF) (Peprotech®, cat #AF-100-15), 10 ng/mL basic fibroblast growth factor (bFGF; Peprotech®, cat #100-18B) and 2.5 mg/mL insulin. When spheres reached around 100 μm in diameter, they were washed with PBS and dissociated with accutase (Stem Cell Technology®, cat #07920) in order to have single cells again. […] Images were captured on Axiovert™ 40 CFL microscope equipped with a MRC camera. At the end of the treatment, living cells were collected for RNA extraction.
Stem like-spheroids were prepared by seeding 5,000 MDA-MB-231, SkBr3 or MDA-MB-436 dissociated spheres/well in ultra-Low attachment 96-well plates (Corning®, cat #7007) in stem cell medium supplemented as described above. […] Spheroid growth was monitored using an Axio Observer live-cell phase contrast microscope (Zeiss®).

Data set [3] has as its system MDA-MB-231 and SkBr3 cells in culture. In words: RT-qPCR validation of mRNA biomarkers in vitro. To be noted: MitoQ 500 nM, 48 h. As for the experimental part: Total mRNA from MDA-MB-231, SkBr3 and MDA-MB-436 cells treated ±MitoQ for 48 h was extracted using the NucleoSpin RNA Kit (Macherey-Nagel®). Total mRNA from primary tumors was extracted with Tri reagent (Molecular Research Center®, Cat #TR118). mRNAs were quantified by the Qubit BR dsRNA assay kit (Thermo Fisher Scientific®), and mRNA integrity was evaluated on an Agilent® 2100 Bioanalyzer with the RNA 6000 nano kit (Agilent®). It was reverse transcribed in complementary DNA using the High-Capacity cDNA Reverse Transcription Kit (Applied Biosystems®, cat #4368814) according to manufacturer's protocol. Complementary DNA (500 ng) was amplified by real time quantitative PCR (RT-qPCR) using the low ROX SYBR Master Mix dTTP Blue (Eurogentec®) and primers listed in Table 5 and Table 6 on a ViiA 7 Real-Time PCR System (Thermo Fisher Scientific®). Gene expression was normalized to β-actin gene expression.
While EMT and sternness markers are usual suspects when testing antimetastatic strategies, it was decided to go deeper in the understanding of the molecular effects of MitoQ, and performed unbiased RNA sequencing (RNAseq) using cells treated for 48 h±MitoQ (500 nM). […] On independent samples upon the same conditions (including |log 2 Fold Change|>1 and P<0.01), RT-qPCR on the two cell lines validated all genes as potential biomarkers of human breast cancer cell response to MitoQ, to the exception of EID1, PEG10, FTH1 and NUPR1 (FIG. 12A-M and Table 7).

Data set [4] has as its system MDA-MB-231 cancer cells. In words: Cell morphology, H&E. As to conditions: MitoQ 100 to 500 nM, 48 h. Here is the method: (§1) To visualize cell morphology, MDA-MB-231, SkBr3 and MDA-MB-436 cells were seeded in 24-well plates and treated ±MitoQ for 48 h, fixed in 100% methanol for 10 min stained with hematoxylin and eosin (H&E) for 10 min each, washed with water and dried. Pictures were acquired on an Axiovert 40 CFL microscope (Zeiss®) equipped with a MRC camera (Zeiss®).

In data set [5] the test system is SkBr3 cancer cells. In words: Cell morphology, H&E. To be noted: MitoQ 100 to 500 nM, 48 h. Here is the method:
as §1

For data set [6], the system named is MDA-MB-231 cells. In words: Cell numbers, chemotherapy ±MitoQ, crystal violet. To be noted: increasing doses of chemotherapy ±100 nM MitoQ; 24-72 h. As for the experimental part:
(§2) To test the effects of combination treatments on cell numbers, MDA-MB-231 or SkBr3 cancer cells were plated in 96-well plates and treated with increasing concentrations of chemotherapeutic drug ±MitoQ for 24 h (epirubicin), 48 h (doxorubicin, 5-FU, cisplatin, paclitaxel) or 72 h (gemcitabine). Cells were then fixed in 11% glutaraldehyde and stained with crystal violet. The dye retained by the cells was solubilized in 10% acetic acid, and the optical density (570 nm) was measured using a SpectraMax i3 spectrophotometer equipped with a MiniMax™ imaging cytometer.

In data set [7] the test system is SkBr3 cells. In words: Cell numbers, chemotherapy ±MitoQ, crystal violet. To be noted: increasing doses of chemotherapy ±100 nM MitoQ; 24-72 h. As for the experimental part:
as §2

SMILES strings stand for the structures.

Consider `COC1=C(OC)C(=O)C(CCCCCCCCCC[P+](c2ccccc2)(c2ccccc2)c2ccccc2)=C(C)C1=O` [MitoQ], for which the mitochondrial superoxide production result in data set [1] is “not affected”. Further, the spheroid formation result in data set [2] is recorded as “dose-dependently retarded”. Besides, in data set [3], the “ASNS transcript upregulated in response to MitoQ: Validated in vitro” value is “+ (Repressed or induced by ≥2-fold with P < 0.01 in both MDA-MB-231 and SkBr3 cells in culture.)”; the “G6PD transcript upregulated in response to MitoQ: Validated in vitro” value was “+ (Repressed or induced by ≥2-fold with P < 0.01 in both MDA-MB-231 and SkBr3 cells in culture.)”; the “PCK2 transcript upregulated in response to MitoQ: Validated in vitro” value is “+ (Repressed or induced by ≥2-fold with P < 0.01 in both MDA-MB-231 and SkBr3 cells in culture.)”; the “PHGDH-1 transcript upregulated in response to MitoQ: Validated in vitro” value is “+ (Repressed or induced by ≥2-fold with P < 0.01 in both MDA-MB-231 and SkBr3 cells in culture.)”. In addition, in data set [3], the “PSAT1 transcript upregulated in response to MitoQ: Validated in vitro” value is “+ (Repressed or induced by ≥2-fold with P < 0.01 in both MDA-MB-231 and SkBr3 cells in culture.)”; the “SERPINE1 transcript upregulated in response to MitoQ: Validated in vitro” value is “+ (Repressed or induced by ≥2-fold with P < 0.01 in both MDA-MB-231 and SkBr3 cells in culture.)”; the “SLC6A9 transcript upregulated in response to MitoQ: Validated in vitro” value is “+ (Repressed or induced by ≥2-fold with P < 0.01 in both MDA-MB-231 and SkBr3 cells in culture.)”; the “SLC7A11 transcript upregulated in response to MitoQ: Validated in vitro” value is “+ (Repressed or induced by ≥2-fold with P < 0.01 in both MDA-MB-231 and SkBr3 cells in culture.)”. Also, the “TXNRD1 transcript upregulated in response to MitoQ: Validated in vitro” value in data set [3] is “+ (Repressed or induced by ≥2-fold with P < 0.01 in both MDA-MB-231 and SkBr3 cells in culture.)”. For the same compound, the Morphological changes entry in data set [4] is given as “not obvious”. Further, the Morphological changes entry in data set [5] is given as “not obvious”. Besides, in data set [6], the “cytostatic/cytotoxic effects of doxorubicin, epirubicin, 5-fluorouracil (5-FU), cisplatin, paclitaxel and gemcitabine” value is listed as “did not alter”. The “cytostatic/cytotoxic effects of doxorubicin, epirubicin, 5-fluorouracil (5-FU), cisplatin, paclitaxel and gemcitabine” value in data set [7] was “did not alter”.
